Tested on: MDA-MB-231 cells
Assay: Fluorescence microscopy of A488-pHLIP cellular interaction
Format: cell-based, human

H2N-GCEQNPIYWARYADWLF-TTPLLLLDLALLVDADEGTG-CONH2 [A488-pHLIP]
A488 fluorescence of cells (microscopy) (pH 5.0, absence of divalent cations): large increase in A488 fluorescence intensity | A488 fluorescence of cells (microscopy) (pH 7.4, 1.8 mM Ca2+): significant increase in A488 fluorescence intensity | A488 fluorescence of cells (microscopy) (pH 7.4, absence of divalent cations, washed before imaging): No significant fluorescence
